Data published in patent US7196074B2, “Methods of making, using and pharmaceutical formulations comprising 7α, 11β-dimethyl-17β-hydroxyestra-4, 14-dien-3-one and 17 esters thereof” (The United States of America as represented by the …, priority 2000, dated 2007).

Experiments:
ventral prostate weight [1] = assay: Duration of androgenic activity after subcutaneous injection, ventral prostate weight over weeks in orchidectomized immature rats; type: in vivo, Sprague-Dawley rats
Protocol: Immature (about 21-day-old) Sprague-Dawley rats were orchidectomized under anesthesia, and randomly assignee to groups of ten animals for each dose level of the active undergoing testing. Each active was administered by subcutaneous injection each day for seven days beginning on the date of the orchidectomy. The animals were sacrificed 24 hours after the last dose, and the ventral prostate and seminal vesicles were excised, cleaned of fat and connective tissue, blotted on moist filter paper and weighed to the nearest 0.1 mg. Regression analysis was performed by conventional methods using a PROPHET data management system. Ventral prostate weight was used as the endpoint because it is the sensitive organ to androgenic stimulation.
Except for testosterone enanthate, each active was formulated in two different carriers: (1) an aqueous suspension and (2) in sesame oil. Testosterone enanthate was formulated using the sesame oil carrier only, because it exists as a liquid at room temperature and could not therefore be formulated as an aqueous suspension.
The carrier used to provide the aqueous suspension was formulated as follows: 1 g benzyl alcohol, 0.5 g sodium carboxylethyl cellulose 50, 0.376 g disodium hydrogen phosphate dihydrate, 1.495 g sodium dihydrogen phosphate dihydrate, with water for injection (WFI) being added to bring volume of the carrier up to 100 ml.
Each formulation was prepared at a concentration of 0.6 mg/0.2 ml.
Immature (about 21-day-old) Sprague-Dawley rats were orchidectomized under anesthesia, and randomly assignee to groups of 40 or more. Animals received a single subcutaneous injection of 0.6 mg of each ester in 0.2 ml of an aqueous suspending carrier and/or oily carrier (10% ethanol/90% sesame oil or ethyl oleate) on the date of the orchidectomy. In cases where the ester was not solid at room temperature, 10% ethanol/sesame oil or ethyl oleate was used as the carrier. In this example, the carrier used to provide the aqueous suspension was formulated as follows: 1 g benzyl alcohol, 0.5 g sodium carboxylethyl cellulose 50, 0.376 g disodium hydrogen phosphate dihydrate, 1.495 g sodium dihydrogen phosphate dihydrate, with water for injection (WFI) being added to bring volume of the carrier up to 100 ml.
Five animals from each group were sacrificed at weekly or biweekly intervals, and the ventral prostate and seminal vesicles were excised, cleaned of fat and connective tissue, blotted on moist filter paper and weighed to the nearest 0.1 mg.
Ventral prostate weight was used as the endpoint because it is the sensitive organ to androgenic stimulation. Regression analysis was performed by conventional methods using the PROPHET data management system previously identified.
Immature (about 21-day-old) Sprague-Dawley rats were orchidectomized under anesthesia, and randomly assignee to groups of 40 or more. Animals received a single subcutaneous injection of 0.6 mg of the undecanoate in 0.2 ml of an aqueous suspending carrier and/or oily carrier (10% ethanol/90% sesame oil containing 5 mg/ml chlorobutanol as a preservative, or ethyloleate) on the date of the orchidectomy. The enanthate ester was formulated using the 10% ethanol/sesame oil or ethyloleate carrier as a first standard, with the 10% ethanol/sesame oil carrier used as a second standard.
In this example, the carrier used to provide the aqueous suspension was formulated as follows: 1 g benzyl alcohol, 0.5 g sodium carboxylethyl cellulose 50, 0.376 g disodium hydrogen phosphate dihydrate, 1.495 g sodium dihydrogen phosphate dihydrate, with water for injection (WFI) being added to bring volume of the carrier up to 100 ml.
Immature (about 21-day-old) Sprague-Dawley rats were orchidectomized under anesthesia, and randomly assignee to groups of 40 or more. […] The enanthate ester was formulated using the 10% ethanol/sesame oil or ethyloleate carrier as a first standard, with the 10% ethanol/sesame oil carrier used as a second standard.

ventral prostate weight [2] = assay: Subcutaneous androgenic potency, ventral prostate weight assay in orchidectomized immature rats (injection daily for seven days); type: in vivo, Sprague-Dawley rats; conditions: for Androgenic Potency (activity of corresponding alcohol): ventral prostate weight assay following subcutaneous administration, alcohol of G = 1.0 (assigned), value is for the free alcohol of the listed ester
Protocol: (§1) Immature (about 21-day-old) Sprague-Dawley rats were orchidectomized under anesthesia, and randomly assignee to groups of ten animals for each dose level of the active undergoing testing. Each active was dissolved in 10% ethanol/sesame oil and administered by gavage (oral) or subcutaneous injection each day for seven days beginning on the date of the orchidectomy. The animals were sacrificed 24 hours after the last dose, and the ventral prostate and seminal vesicles were excised, cleaned of fat and connective tissue, blotted on moist filter paper and weighed to the nearest 0.1 mg. Regression analysis was performed by conventional methods using a PROPHET data management system. Ventral prostate weight was used as the endpoint because it is the sensitive organ to androgenic stimulation.
as §1, with “by” for “by gavage (oral) or”, “mg. See, e.g., Hershberger, L. et al, Myotrophic Activity of 19-nortestosterone And Other Steroids Determined By Modified Levator And Muscle Method, Proc. Soc. Exptl. Bid. Med. 83 175–180 (1953).” for “mg.”, “system. See, e.g., Bliss, C., The Statistics of Bioassay (Academic Press, New York, 1952); Hollister, C., Nucleic Acids Res. 16 1873–75 (1988).” for “system.”
Immature (about 22-day-old) Sprague-Dawley male rats were orchidectomized under anesthesia, and randomly assignee to groups of ten animals for each dose level of the active undergoing testing. […] Illumination was controlled for 14 hour periods of light and 10 hours of darkness.
Each active was administered by subcutaneous injection of 0.6 mg of test material in aqueous suspending vehicle (ASV) and/or an oily vehicle (10% ethanol/sesame oil) on the day of surgery. Testosterone enanthate in sesame oil was used as a standard. The ventral prostate and seminal vesicles were excised, cleaned of fat and connective tissue, blotted on moist filter paper and weighed to the nearest 0.1 mg. Regression analysis was performed by conventional methods using a PROPHET data management system. Ventral prostate weight was used as the endpoint because it is the sensitive organ to androgenic stimulation.

androgen receptor = target: T1, androgen receptor (Rattus norvegicus, UniProt P15207); assay: Relative binding affinity to the androgen receptor; conditions: from rat prostate; relative to methyltrienolone = 100%; value is for the free alcohol of the listed ester
T1 sequence (P15207 1-902): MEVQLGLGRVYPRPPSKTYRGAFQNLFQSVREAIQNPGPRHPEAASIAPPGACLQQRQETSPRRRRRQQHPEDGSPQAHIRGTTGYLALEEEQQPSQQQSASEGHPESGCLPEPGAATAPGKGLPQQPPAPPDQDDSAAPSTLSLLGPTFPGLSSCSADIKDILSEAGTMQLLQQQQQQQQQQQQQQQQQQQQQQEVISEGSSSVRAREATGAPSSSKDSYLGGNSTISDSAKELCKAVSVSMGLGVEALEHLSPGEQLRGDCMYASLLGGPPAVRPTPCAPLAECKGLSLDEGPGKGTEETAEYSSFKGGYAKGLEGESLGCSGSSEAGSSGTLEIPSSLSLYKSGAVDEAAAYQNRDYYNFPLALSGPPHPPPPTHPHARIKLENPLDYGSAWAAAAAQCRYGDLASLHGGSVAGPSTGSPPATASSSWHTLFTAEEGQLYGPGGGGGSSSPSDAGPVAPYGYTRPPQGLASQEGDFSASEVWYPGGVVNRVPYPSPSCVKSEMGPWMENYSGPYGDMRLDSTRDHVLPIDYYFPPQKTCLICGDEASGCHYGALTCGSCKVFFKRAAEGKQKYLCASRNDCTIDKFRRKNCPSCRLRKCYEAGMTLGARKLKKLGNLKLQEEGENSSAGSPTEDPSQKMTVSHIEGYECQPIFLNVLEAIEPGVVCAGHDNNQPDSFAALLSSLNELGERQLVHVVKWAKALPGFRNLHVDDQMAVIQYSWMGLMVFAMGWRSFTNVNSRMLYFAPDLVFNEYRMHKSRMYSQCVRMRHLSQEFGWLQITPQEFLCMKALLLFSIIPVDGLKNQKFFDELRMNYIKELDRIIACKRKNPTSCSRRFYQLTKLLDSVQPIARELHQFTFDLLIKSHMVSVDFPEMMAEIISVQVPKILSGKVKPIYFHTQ
Protocol: In addition to the foregoing, the androgenic potency and relative binding affinity to the androgen receptor of several free alcohols after subcutaneous administration of their corresponding esters was also determined.

Compound: CCCCC1CCC(C(=O)O[C@H]2CC[C@H]3[C@@H]4CCC5=CC(=O)CC[C@]5(C)[C@H]4CC[C@]23C)CC1 (some centres unmarked) [testosterone bucyclate, Testosterone bucyclate, reference compound]
- potency and long-term activity after subcutaneous injection versus 0.6 mg CDB-4386A in aqueous suspension (in words), FIG. 5 (ventral prostate weight [1]; 1.0 mg/0.2 ml, aqueous suspension, ventral prostate weight): significantly less
- Androgenic Potency (activity of corresponding alcohol) (ventral prostate weight [2]): 1.0 (assigned)

Compound: C[C@]1(O)CC[C@H]2[C@@H]3CCC4=CC(=O)CCC4=C3C=C[C@@]21C [methyltrienolone]
- Relative Binding Affinity (activity of corresponding alcohol) (androgen receptor): 100%
- Androgenic Potency (activity of corresponding alcohol) (ventral prostate weight [2]): 5.0

Compound: CCCCC1CCC(C(=O)O[C@H]2CC[C@H]3[C@H]4[C@H]([C@H](C)C[C@]23C)[C@H]2CCC(=O)C=C2C[C@H]4C)CC1 (stereo partly drawn) [CDB-4386, 7α, 11α-Dimethyl-19-nortestosterone-17β-bucyclate, reference compound]
- ventral prostate weight over time after single subcutaneous injection (in words) (ventral prostate weight [1]; 0.6 mg in 0.2 ml, both oily and aqueous carriers, evaluation discontinued at 8 weeks, FIG. 8): inactive
- activity in potency and duration after subcutaneous injection (in words), FIG. 5 (ventral prostate weight [1]; 0.6 mg/0.2 ml, aqueous suspension or sesame oil, ventral prostate weight): relatively low activity
- activity after subcutaneous administration (in words) (ventral prostate weight [2]; subcutaneous injection daily for 7 days in 10% ethanol/sesame oil, ventral prostate weight): weak activity

Compound: C[C@@H]1CC2=CC(=O)CC[C@@H]2[C@@H]2[C@@H]1[C@@H]1CC[C@H](O)[C@@]1(C)C[C@@H]2C
- melting point: 155 to 157 °C
